# Results published in patent publication US8071584B2 (GlaxoSmithKline LLC, priority 2007, dated 2011).
# Test system: human monocyte stimulated cytokine production (TNF-α)
# Test: Monocyte assay (LPS-stimulated TNF-α production)
# Assay type: cell-based
# Details: 300 nM, human monocytes, LPS
# Procedure: Effect of IKK-β inhibition on human monocyte stimulated cytokine production was assessed as follows: Monocytes were isolated from heparinized whole blood by Ficoll gradient, followed by purification of CD14+ cells using MACS magnetic cell separation beads. Isolated monocytes were then adhered to 96-well culture plates at 1×10^6 cells/mL in RPMI 1640 10% FBS (JRH Biosciences, Lenexa Kans.) for 2 h. Test compounds are added to the wells 30 minutes prior to stimulation with a final vehicle concentration of 0.1% DMSO. Monocytes were activated by the addition of 200 ng/mL endotoxin (LPS; E. coli serotype 026:B6) (Sigma, St. Louis, Mo.) and incubated for 24 hrs at 37 C. Cell-free supernates were analyzed by Alphascreen™ (Perkin Elmer, Waltham, Mass.) for TNF-α using R&D Systems matched pair Abs. Viability of the cells was determined by 10% trypan blue exclusion.
row,Structure (SMILES),inhibition at 0.3 µM
1,"NC(=O)c1cc(-c2csc(CN3CCC3)c2)cc2c(C3CC4CCC(C3)S4(=O)=O)c[nH]c12 (stereo not drawn) [Example 204, 3-[(3-endo)-8,8-Dioxido-8-thiabicyclo[3.2.1]oct-3-yl]-5-[5-(1-azetidinylmethyl)-3-thienyl]-1H-indole-7-carboxamide]",0 to 100%
2,"CN(CCOC(C)(C)C)Cc1cc(-c2cc(C(N)=O)c3[nH]cc(C4CCS(=O)(=O)CC4)c3c2)cs1 [Example 77, 5-(5-{[{2-[(1,1-Dimethylethyl)oxy]ethyl}(methyl)amino]methyl}-3-thienyl)-3-(1,1-dioxidotetrahydro-2H-thiopyran-4-yl)-1H-indole-7-carboxamide]",0 to 100%
3,"NC(=O)c1cc(-c2ccccc2)cc2c(C3CCCS(=O)(=O)C3)c[nH]c12 (stereo not shown) [Example 221, 3-(1,1-Dioxidotetrahydro-2H-thiopyran-3-yl)-5-phenyl-1H-indole-7-carboxamide]",0 to 100%
4,"NC(=O)c1cc(-c2ccc(F)cc2)cc2c(C3CCCS(=O)(=O)C3)c[nH]c12 (stereo not shown) [Example 220, 3-(1,1-Dioxidotetrahydro-2H-thiopyran-3-yl)-5-(4-fluorophenyl)-1H-indole-7-carboxamide]",0 to 100%
5,"NC(=O)c1cc(-c2csc(CN3CCCCCC3)c2)cc2c(C3CC4CCC(C3)S4(=O)=O)c[nH]c12 (stereo not drawn) [Example 208, 3-[(3-exo)-8,8-Dioxido-8-thiabicyclo[3.2.1]oct-3-yl]-5-[5-(hexahydro-1H-azepin-1-ylmethyl)-3-thienyl]-1H-indole-7-carboxamide]",0 to 100%
6,"NC(=O)c1cc(-c2cccs2)cc2c(C3CCCS(=O)(=O)C3)c[nH]c12 (stereo not shown) [Example 222, 3-(1,1-Dioxidotetrahydro-2H-thiopyran-3-yl)-5-(2-thienyl)-1H-indole-7-carboxamide]",0 to 100%
7,"NC(=O)c1cc(-c2ccoc2)cc2c(C3CCCS(=O)(=O)C3)c[nH]c12 (stereo not shown) [Example 217, 3-(1,1-Dioxidotetrahydro-2H-thiopyran-3-yl)-5-(3-furanyl)-1H-indole-7-carboxamide]",0 to 100%

# Same assay, conditions: human CD14+ monocytes, 200 ng/mL LPS, 24 hrs, values given as 'about', read-out: pIC50 in the monocyte assay (converted)
row,Structure (SMILES),IC50
1,"COC(=O)c1cc(-c2ccc(F)cc2)cc2c([C@H]3CCSC3)c[nH]c12 [Example 173, methyl 5-(4-fluorophenyl)-3-[(3R)-tetrahydro-3-thienyl]-1H-indole-7-carboxylate]",5.01 to 1000 nM
2,"NC(=O)c1cc(-c2ccccc2)cc2c(C3CCS(=O)(=O)CC3)c[nH]c12 [Example 1, 3-(1,1-Dioxidotetrahydro-2H-thiopyran-4-yl)-5-phenyl-1H-indole-7-carboxamide]",5.01 to 1000 nM
3,"COCc1ccc(-c2cc(C(N)=O)c3[nH]cc(C4CCS(=O)(=O)CC4)c3c2)s1 [Example 98, 3-(1,1-Dioxidotetrahydro-2H-thiopyran-4-yl)-5-{5-[(methyloxy)methyl]-2-thienyl}-1H-indole-7-carboxamide]",5.01 to 1000 nM
4,"NC(=O)c1c(F)c(-c2ccccc2)cc2c(C3CCS(=O)(=O)CC3)c[nH]c12 [Example 168, 3-(1,1-Dioxidotetrahydro-2H-thiopyran-4-yl)-6-fluoro-5-phenyl-1H-indole-7-carboxamide]",5.01 to 1000 nM
5,"NC(=O)c1cc(-c2ccco2)cc2c(C3CCS(=O)(=O)C3)c[nH]c12 (stereo not shown) [Example 188, 3-(1,1-Dioxidotetrahydro-3-thienyl)-5-(2-furanyl)-1H-indole-7-carboxamide]",5.01 to 1000 nM
6,"NC(=O)c1cc(-c2ccsc2)cc2c(C3CCCS(=O)(=O)C3)c[nH]c12 (stereo not shown) [Example 219, 3-(1,1-Dioxidotetrahydro-2H-thiopyran-3-yl)-5-(3-thienyl)-1H-indole-7-carboxamide]",5.01 to 1000 nM
7,CN(C)Cc1cccc(-c2cc(C(N)=O)c3[nH]cc(C4CCS(=O)(=O)CC4)c3c2)c1 [Example 79],5.01 to 1000 nM
8,"CN(C)Cc1cc(-c2cc(C(N)=O)c3[nH]cc(C4CCS(=O)(=O)C(C)(C)C4)c3c2)cs1 (stereo not shown) [Example 232, 5-{5-[(Dimethylamino)methyl]-3-thienyl}-3-(2,2-dimethyl-1,1-dioxidotetrahydro-2H-thiopyran-4-yl)-1H-indole-7-carboxamide]",5.01 to 1000 nM
9,"NC(=O)c1cc(-c2ccnc(Cl)c2)cc2c(C3CCS(=O)(=O)CC3)c[nH]c12 [Example 68, 5-(2-Chloro-4-pyridinyl)-3-(1,1-dioxidotetrahydro-2H-thiopyran-4-yl)-1H-indole-7-carboxamide]",5.01 to 1000 nM
10,"NC(=O)c1cc(-c2ccc(S(=O)(=O)N3CCC3)s2)cc2c(C3CCS(=O)(=O)CC3)c[nH]c12 [Example 81, 5-[5-(1-Azetidinylsulfonyl)-2-thienyl]-3-(1,1-dioxidotetrahydro-2H-thiopyran-4-yl)-1H-indole-7-carboxamide]",5.01 to 1000 nM
11,"CC1(C)CC(c2c[nH]c3c(C(N)=O)cc(-c4ccsc4)cc23)CCS1(=O)=O (stereo not shown) [Example 227, 3-(2,2-Dimethyl-1,1-dioxidotetrahydro-2H-thiopyran-4-yl)-5-(3-thienyl)-1H-indole-7-carboxamide]",5.01 to 1000 nM
12,"NC(=O)c1cc(-c2ccccc2)cc2c(C3CCCS(=O)(=O)CC3)c[nH]c12 (stereo not shown) [Example 212, 3-(1,1-Dioxido-4-thiepanyl)-5-phenyl-1H-indole-7-carboxamide]",5.01 to 1000 nM
13,"CC1(C)C[C@H](c2c[nH]c3c(C(N)=O)cc(-c4ccc(F)cc4)cc23)CCS1(=O)=O [Example 225, 3-[(4R)-2,2-dimethyl-1,1-dioxidotetrahydro-2H-thiopyran-4-yl]-5-(4-fluorophenyl)-1H-indole-7-carboxamide]",5.01 to 1000 nM
14,"NC(=O)c1cc(-c2csc(CN3CCCCCC3)c2)cc2c(C3CCS(=O)(=O)CC3)c[nH]c12 [Example 72, 3-(1,1-Dioxidotetrahydro-2H-thiopyran-4-yl)-5-[5-(hexahydro-1H-azepin-1-ylmethyl)-3-thienyl]-1H-indole-7-carboxamide]",5.01 to 1000 nM
15,"CC1(C)CC(c2c[nH]c3c(C(N)=O)cc(-c4ccccc4)cc23)CCS1(=O)=O (stereo not shown) [Example 226, 3-(2,2-Dimethyl-1,1-dioxidotetrahydro-2H-thiopyran-4-yl)-5-phenyl-1H-indole-7-carboxamide]",5.01 to 1000 nM
16,"CC(C)[C@H](C)NCc1cccc(-c2cc(C(N)=O)c3[nH]cc(C4CCS(=O)(=O)CC4)c3c2)c1 [Example 80, 5-[3-({[(1S)-1,2-Dimethylpropyl]amino}methyl)phenyl]-3-(1,1-dioxidotetrahydro-2H-thiopyran-4-yl)-1H-indole-7-carboxamide]",5.01 to 1000 nM
17,"CCN(C)Cc1cc(-c2cc(C(N)=O)c3[nH]cc(C4CCS(=O)(=O)CC4)c3c2)cs1 [Example 75, 3-(1,1-Dioxidotetrahydro-2H-thiopyran-4-yl)-5-(5-{[ethyl(methyl)amino]methyl}-3-thienyl)-1H-indole-7-carboxamide]",5.01 to 1000 nM
18,"NC(=O)c1cc(-c2cccs2)cc2c(C3CCS(=O)(=O)C3)c[nH]c12 (stereo not shown) [Example 190, 3-(1,1-Dioxidotetrahydro-3-thienyl)-5-(2-thienyl)-1H-indole-7-carboxamide]",5.01 to 1000 nM
19,"NC(=O)c1cc(-c2ccc(F)cc2)cc2c(C3CCS(=O)(=O)C3)c[nH]c12 (racemic) [Example 171, (rac)-3-(1,1-Dioxidotetrahydro-3-thienyl)-5-(4-fluorophenyl)-1H-indole-7-carboxamide]",5.01 to 1000 nM
20,"NC(=O)c1cc(-c2ccoc2)cc2c([C@H]3CCS(=O)(=O)[C@@H](c4ccccc4)C3)c[nH]c12 (racemic) [Example 250, 3-(1,1-Dioxido-2-cis-phenyltetrahydro-2H-thiopyran-4-yl)-5-(3-furanyl)-1H-indole-7-carboxamide]",5.01 to 1000 nM
21,"NC(=O)c1cc(-c2ccsc2)cc2c(CC3CCS(=O)(=O)C3)c[nH]c12 (stereo not shown) [Example 260, 3-[(1,1-Dioxidotetrahydro-3-thienyl)methyl]-5-(3-thienyl)-1H-indole-7-carboxamide]",5.01 to 1000 nM
22,"CC1(C)C[C@@H](c2c[nH]c3c(C(N)=O)cc(-c4ccc(F)cc4)cc23)CCS1(=O)=O [Example 224, 3-[(4S)-2,2-Dimethyl-1,1-dioxidotetrahydro-2H-thiopyran-4-yl]-5-(4-fluorophenyl)-1H-indole-7-carboxamide]",> 1000 nM
23,"Cc1n[nH]c(C)c1-c1cc(C(N)=O)c2[nH]cc(C3CCS(=O)(=O)CC3)c2c1 [Example 140, 5-(3,5-Dimethyl-1H-pyrazol-4-yl)-3-(1,1-dioxidotetrahydro-2H-thiopyran-4-yl)-1H-indole-7-carboxamide]",> 1000 nM
24,"N#CCc1ccc(-c2cc(C(N)=O)c3[nH]cc(C4CCS(=O)(=O)CC4)c3c2)cc1 [Example 65, 5-[4-(Cyanomethyl)phenyl]-3-(1,1-dioxidotetrahydro-2H-thiopyran-4-yl)-1H-indole-7-carboxamide]",5.01 to 1000 nM
25,"NC(=O)c1cc(-c2ccc3[nH]ncc3c2)cc2c(C3CCS(=O)(=O)CC3)c[nH]c12 [Example 82, 3-(1,1-Dioxidotetrahydro-2H-thiopyran-4-yl)-5-(1H-indazol-5-yl)-1H-indole-7-carboxamide]",5.01 to 1000 nM
26,"CCN(CC)Cc1cc(-c2cc(C(N)=O)c3[nH]cc(C4CCS(=O)(=O)CC4)c3c2)cs1 [Example 76, 5-{5-[(diethylamino)methyl]-3-thienyl}-3-(1,1-dioxidotetrahydro-2H-thiopyran-4-yl)-1H-indole-7-carboxamide]",5.01 to 1000 nM
27,"NC(=O)c1cc(-c2ccc3sccc3c2)cc2c(C3CCS(=O)(=O)C3)c[nH]c12 (stereo not shown) [Example 191, 5-(1-Benzothien-5-yl)-3-(1,1-dioxidotetrahydro-3-thienyl)-1H-indole-7-carboxamide]",5.01 to 1000 nM
